Assay results published in US11053253B2, “Macrocyclic compounds for treatment of medical disorders” (Achillion Pharmaceuticals, Inc., priority 2017, dated 2021).

Target: Human Factor D (Homo sapiens (Human), UniProt P00746)
Assay: Human Factor D Assay
Type: biochemical
Conditions: Human Factor D 80 nM, substrate Z-L-Lys-SBzl, DTNB, A405; read-out: IC50 (Stars)
Method in brief: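 Serum-purified enzyme (80 nM final) was preincubated with compound 5 min at room temperature in 50 mM Tris, 1M NaCl, pH 7.5. Z-L-Lys-SBzl and DTNB ([…] each, final) were added and A405 followed every 30 s for 30 min; IC50 from nonlinear regression of reaction rates.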

Sequence of Human Factor D (P00746 26-253): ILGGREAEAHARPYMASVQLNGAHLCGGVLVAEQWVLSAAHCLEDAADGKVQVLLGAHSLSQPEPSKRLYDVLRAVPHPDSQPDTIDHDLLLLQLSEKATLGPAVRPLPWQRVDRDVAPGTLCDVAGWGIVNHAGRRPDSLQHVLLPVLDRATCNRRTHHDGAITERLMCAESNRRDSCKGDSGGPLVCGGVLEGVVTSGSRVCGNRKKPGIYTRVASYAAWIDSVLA

Structure (SMILES)	IC50
C=C1COCc2ccc(Br)nc2NC(=O)[C@@H]2C[C@]3(C[C@H]3N2C(=O)Cn2nc(C(C)=O)c3cc(-c4cnc(C)nc4)ccc32)Cn2cc1cn2 [Compound T-66]	< 1000 nM
CC(=O)c1nn(CC(=O)N2[C@H]3C[C@@]4(CNC(=O)C(F)(F)CCCOCc5ccc(Br)nc5NC3=O)C[C@@H]24)c2ccc(-c3cnc(C)nc3)cc12 [Compound T-157]	< 1000 nM
CC(=O)c1nn2c3c(cc(-c4cnc5cc(C)nn5c4)cc13)CCCCCCC(=O)NC[C@@]13C[C@@H](C(=O)Nc4nc(C(F)(F)F)ccc4C)N(C(=O)C2)[C@@H]1C3 [Compound T-256]	< 1000 nM
CC(=O)c1nn(CC(=O)N2[C@H]3C[C@@]4(C=CCCCCN(C)C(=O)Cc5ccc(Br)nc5NC3=O)C[C@@H]24)c2ccc(-c3cnc(C)nc3)cc12 [Compound T-19, (41R,43S,45R)-42-(2-(3-acetyl-5-(2-methylpyrimidin-5-yl)-1H-indazol-1-yl)acetyl)-16-bromo-11-methyl-42,2,11-triaza-1(2,3)-pyridina-4(3,5)-bicyclo[3.1.0]hexanacyclotridecaphan-5-ene-3,12-dione]	< 1000 nM
CC(=O)c1nn(CC(=O)N2[C@H]3C[C@]4(C[C@@H]24)CN(C)CCCCC=Cc2ccc(Br)nc2NC3=O)c2cnccc12 [Compound T-13, (41R,43S,45R)-42-(2-(3-acetyl-1H-pyrazolo[3,4-c]pyridin-1-yl)acetyl)-16-bromo-6-methyl-42,2,6-triaza-1(2,3)-pyridina-4(3,5)-bicyclo[3.1.0]hexanacyclododecaphan-11-en-3-one]	< 1000 nM
CC(=O)c1nn(CC(=O)N2[C@H]3C[C@@]4(C=CCCCCCN(C)Cc5ccc(Br)nc5NC3=O)C[C@@H]24)c2c(CF)cc(-c3cnc(C)nc3)cc12 [Compound T-59]	< 1000 nM
CC(=O)c1nn2c3c(cc(-c4cnc(C)nc4)cc13)CCCCCCC(=O)NC[C@@]13C[C@@H](C(=O)N[C@@H](C)c4cccc(Cl)c4F)N(C(=O)C2)[C@@H]1C3 [Compound T-232]	< 1000 nM
CC(=O)c1nn(CC(=O)N2C[C@@]3(F)COCCCCCCCCc4ccc(Br)nc4NC(=O)[C@@H]2C3)c2cnc(-c3cnc(C)nc3)cc12 [Compound T-239]	< 1000 nM
CC(=O)c1nn2c3c(cc(-c4cnc(C)nc4)cc13)CC=CCCCC(=O)NC[C@@]13C[C@@H](C(=O)Nc4cc(C)cc(Br)n4)N(C(=O)C2)[C@@H]1C3 [Compound T-189]	< 1000 nM
CC(=O)c1nn2c3c(cc(-c4cnc(C5CC5)nc4)cc13)CCCCCCC(=O)NC[C@@]13C[C@@H](C(=O)Nc4nc(C(F)(F)F)ccc4C)N(C(=O)C2)[C@@H]1C3 [Compound T-242]	< 1000 nM
CC(=O)c1nn(CC(=O)N2[C@H]3C[C@@]4(CNC(=O)C(C)(C)C=CCOCc5ccc(Br)nc5NC3=O)C[C@@H]24)c2ccc(-c3cnc(C)nc3)cc12 [Compound T-131]	< 1000 nM
CC(=O)c1nn2c3c(cc(-c4cnc(C)nc4)cc13)CCC=CCCCC(=O)NC[C@@]13C[C@@H](C(=O)Nc4nc(Br)ccc4C)N(C(=O)C2)[C@@H]1C3 [Compound T-20, (41R,43S,45R)-13-acetyl-N-(6-bromo-3-methylpyridin-2-yl)-15-(2-methylpyrimidin-5-yl)-3,7-dioxo-11H-42,6-diaza-1(1,7)-indazola-4(2,5)-bicyclo[3.1.0]hexanacyclotetradecaphan-11-ene-43-carboxamide]	< 1000 nM
CC(=O)c1nn(CC(=O)N2[C@H]3C[C@@]4(CNS(=O)(=O)CCC=Cc5ccc(Br)nc5NC3=O)C[C@@H]24)c2ccc(-c3cnc(C)nc3)cc12 [Compound T-9, (41R,43S,45R)-42-(2-(3-acetyl-5-(2-methylpyrimidin-5-yl)-1H-indazol-1-yl)acetyl)-16-bromo-7-thia-42,2,6-triaza-1(2,3)-pyridina-4(3,5)-bicyclo[3.1.0]nexanacycloundecaphan-10-en-3-one 7,7-dioxide]	< 1000 nM
CC(=O)c1nn2c3c(cc(-c4cnc(C)nc4)cc13)CCCCNC(=O)NC[C@@]13C[C@@H](C(=O)Nc4nc(C(F)(F)F)ccc4C)N(C(=O)C2)[C@@H]1C3 [Compound T-237]	< 1000 nM
CC(=O)c1nn(CC(=O)N2[C@H]3C[C@@]4(COCCCCCCc5ccc(Br)nc5NC3=O)C[C@@H]24)c2cnc(-c3cnc(C)nc3)cc12 [Compound T-42]	< 1000 nM
CC(=O)c1nn2c3c(cc(-c4cnc(C)nc4)cc13)C=CCCCCC(=O)NC[C@@]13C[C@@H](C(=O)Nc4nc(C(F)(F)F)ccc4C)N(C(=O)C2)[C@@H]1C3 [Compound T-51]	< 1000 nM
CC(=O)c1nn(CC(=O)N2[C@H]3C[C@@]4(CNC(=O)C(C)(C)CCCOCc5ccc(C(F)(F)F)nc5NC3=O)C[C@@H]24)c2cnc(-c3cnc(C)nc3)cc12 [Compound T-225]	< 1000 nM
CC(=O)c1nn(CC(=O)N2[C@H]3C[C@]4(C[C@@H]24)CN(C)CCCCCCCc2ccc(Br)nc2NC3=O)c2c(C)cc(-c3cnc(C)nc3)cc12 [Compound T-71]	< 1000 nM
CC(=O)c1nn2c3c(cc(-c4cnc(C)nc4)cc13)CCCCCCC(=O)NC[C@@]13C[C@@H](C(=O)Nc4cc(C)cc(Br)n4)N(C(=O)C2)[C@@H]1C3 [Compound T-190]	< 1000 nM
CC(=O)c1nn(CC(=O)N2[C@H]3C[C@]4(C[C@@H]24)Cn2ccc(n2)/C=C\COCc2ccc(Br)nc2NC3=O)c2cnc(-c3cnc(C)nc3)cc12 [Compound T-70]	< 1000 nM

Structure (SMILES)	IC50
CC(=O)c1nn2c3c(nc(-c4cnc(C)nc4)cc13)CCCCCCCOC[C@@]13C[C@@H](C(=O)Nc4nc(C(F)(F)F)ccc4C)N(C(=O)C2)[C@@H]1C3 [Compound T-163]	< 1000 nM
CC(=O)c1nn2c3c(cc(-c4cnc(C)nc4)cc13)CCCCC[C@H](C)C(=O)N(C)C[C@@]13C[C@@H](C(=O)Nc4nc(C(F)(F)F)ccc4C)N(C(=O)C2)[C@@H]1C3 [Compound T-244]	< 1000 nM
CC(=O)c1nn2c3c(cc(-c4cnc(C)nc4)cc13)CC=CCCCC(=O)NC[C@@]13C[C@@H](C(=O)Nc4ccn(CC(F)(F)F)n4)N(C(=O)C2)[C@@H]1C3 [Compound T-91]	< 1000 nM
CC(=O)c1nn2c3c(cc(-c4cnc(C)nc4)cc13)CCCCC=CCOC[C@@]13C[C@@H](C(=O)Nc4nc(C(F)(F)F)ccc4C)N(C(=O)C2)[C@@H]1C3 [Compound T-101]	< 1000 nM
CC(=O)c1cc2n(n1)CC(=O)N1[C@@H](C[C@@]3(C)C[C@@H]13)C(=O)Nc1nc(Br)ccc1COC/C=C/CCNC2=O [Compound T-14, (18aS,19aR,20aR,E)-2-acetyl-15-bromo-19a-methyl-6,7,12,17,18a,19,19a,20,20a,23-decahydro-4H-cyclopropa[4,5]pyrrolo[2,1-g]pyrazolo[1,5-k]pyrido[3,2-c][1,5,8,11,14]oxatetraazacyclononadecine-4,18,22(5H,10H)-trione]	> 10000 nM
CC(=O)c1nn(CC(=O)N2[C@H]3C[C@@]4(COCC=CCOCc5ccc(Br)nc5NC3=O)C[C@@H]24)c2ccccc12 [Compound T-10, (41R,43S,45S)-42-(2-(3-acetyl-1H-indazol-1-yl)acetyl)-16-bromo-6,11-dioxa-42,2-diaza-1(2,3)-pyridina-4(3,5)-bicyclo[3.1.0]hexanacyclododecaphan-8-en-3-one]	< 1000 nM
CC(=O)c1nn(CC(=O)N2[C@H]3C[C@@]4(CNC(=O)C(C)(C)CCCCOCc5ccc(Br)nc5NC3=O)C[C@@H]24)c2ccc(-c3cnc(C)nc3)cc12 [Compound T-117]	< 1000 nM
CC(=O)c1nn2c3c(cc(-c4cnc(C)nc4)cc13)CC=CCCCC(=O)NC[C@]1(F)C[C@@H](C(=O)Nc3nc(C(F)(F)F)ccc3C)N(C1)C(=O)C2 [Compound T-127]	> 10000 nM
CC(=O)c1nn(CC(=O)N2[C@H]3C[C@@]4(CNC(=O)C(C)(C)CCCOCc5ccc(Br)nc5NC3=O)C[C@@H]24)c2cnc(-c3cnc(C)nc3)cc12 [Compound T-116]	< 1000 nM
CC(=O)c1nn2c3c(cc(-c4cnc(C)nc4)cc13)CCCCCCC(=O)NC[C@@]13C[C@@H](C(=O)Nc4cccc(OC(F)(F)F)c4F)N(C(=O)C2)[C@@H]1C3 [Compound T-223]	< 1000 nM
CC(=O)c1nn2c3c(cc(-c4cnc(C)nc4)cc13)CC=CCCCC(=O)NC[C@@]13C[C@@H](C(=O)Nc4nc(C(F)(F)F)ccc4C)N(C(=O)C2)[C@@H]1C3 [Compound T-219]	< 1000 nM
CC(=O)c1nn2c3c(cc(-c4cnc(C)nc4)cc13)CC=CCCCC(=O)NC[C@@]13C[C@@H](C(=O)Nc4cncc(Br)n4)N(C(=O)C2)[C@@H]1C3 [Compound T-233]	< 1000 nM
CC(=O)c1nn2c3c(cc(-c4cnc(C)nc4)cc13)C(O)C(O)CCCCCN(C)C[C@@]13C[C@@H](C(=O)Nc4nc(Br)ccc4C)N(C(=O)C2)[C@@H]1C3 (stereo partly shown) [Compound T-121]	< 1000 nM
CC(=O)c1nn2c3c(nc(-c4cnc(C)nc4)cc13)C=CCCCC(=O)NC[C@@]13C[C@@H](C(=O)Nc4nc(C(F)(F)F)ccc4C)N(C(=O)C2)[C@@H]1C3 [Compound T-126]	< 1000 nM
CC(=O)c1nn2c3c(cc(-c4cnc(C)nc4)cc13)CCCCCCc1cccc(n1)OC[C@@]13C[C@@H](C(=O)Nc4nc(Br)ccc4C)N(C(=O)C2)[C@@H]1C3 [Compound T-140]	< 1000 nM
CC(=O)c1nn2c3c(cc(-c4cnc(C)nc4)cc13)CCCCCCC(=O)NC[C@@]13C[C@@H](C(=O)Nc4nc(Br)c(F)cc4C)N(C(=O)C2)[C@@H]1C3 [Compound T-85]	< 1000 nM
COc1cc(Br)nc(NC(=O)[C@@H]2C[C@]34CNC(=O)CCCCCCc5cc(-c6cnc(C)nc6)cc6c(C(C)=O)nn(c56)CC(=O)N2[C@@H]3C4)c1 [Compound T-210]	< 1000 nM
CC(=O)c1nn2c3c(cc(-c4cnc(C)nc4)cc13)CCCCCCC(=O)NC[C@@]13C[C@@H](C(=O)N[C@@H](C)COC(F)(F)F)N(C(=O)C2)[C@@H]1C3 [Compound T-206]	< 1000 nM
CC(=O)c1nn(CC(=O)N2[C@H]3C[C@@]4(CNC(=O)C(C)(C)CCCCc5ccc(Br)nc5NC3=O)C[C@@H]24)c2cnc(-c3cnc(C)nc3)cc12 [Compound T-181]	< 1000 nM
CC(=O)c1nn(CC(=O)N2[C@H]3C[C@]4(C[C@@H]24)CN(C)CCCCC=CCc2ccc(Br)nc2NC3=O)c2c(C)cc(-c3cnc(C)nc3)cc12 [Compound T-60]	< 1000 nM
